These compounds were tested on larvae of the banded cucumber beetle (Diabrotica balteata) (assay: Diabrotica balteata spray test). Details: 168 h, 100 g/ha (=32 μg/well), after 7 days, read-out: efficacy (seedling growth).
Format: in vivo
Method: Diabrotica balteata—Spray Test
(§1) • Solvent: 78.0 parts by weight of acetone • 1.5 parts by weight of dimethylformamide • Emulsifier: alkylarylpolyglycol ether
(§2) To produce a suitable preparation of active compound, 1 part by weight of active compound is mixed with the stated amount of solvent, and the concentrate is diluted with water, containing an emulsifier concentration of 1000 ppm, to the desired concentration. Further test concentrations are prepared by dilution with emulsifier containing water.
Soaked wheat seeds (Triticum aestivum) are placed in a multiple well plate filled with agar and some water and are incubated for 1 day to germinate (5 seeds per well). The germinated wheat seeds are sprayed with a test solution containing the desired concentration of the active ingredient. Afterwards each unit is infected with 10-20 larvae of the banded cucumber beetle (Diabrotica balteata).
After 7 days efficacy in % is determined. 100% means all the seedlings have grown up like in the untreated, uninfected control; 0% means none of the seedlings have grown.

| Structure (SMILES) | pest or weed control at 32 µg/disc, 100 g/ha [%] |
| --- | --- |
| CC(C)N(C)C(=O)c1nccc(-n2ncnc2[C@H](C)NC(=O)c2cc(OC(F)(F)F)cc(OC(F)(F)F)c2)n1 [I-115] | 80 |
| CNC(=O)c1nccc(-n2ncnc2[C@H](C)NC(=O)c2cc(OC(F)(F)F)cc(OC(F)(F)F)c2)n1 [I-116] | 100 |
| C[C@H](NC(=O)c1cc(Cl)cc(S(=O)(=O)C(F)F)c1)c1ncnn1-c1cc(C(N)=O)ncn1 [I-118] | 100 |
| C[C@H](NC(=O)c1cc(OC(F)(F)F)cc(C2(C#N)CC2)c1)c1ncnn1-c1cc(C(N)=O)ncn1 [I-120] | 100 |
| C[C@H](NC(=O)c1cc(C#N)cc(OC(F)(F)F)c1)c1ncnn1-c1cc(C(N)=O)ncn1 [I-121] | 100 |
| CNC(=O)c1cc(-n2ncnc2[C@H](C)NC(=O)c2cc(Br)cc(OC(F)(F)C(F)F)c2)ncn1 [I-122] | 100 |
| Cc1nc([C@H](C)NC(=O)c2cc(C#N)cc(C#N)c2)n(-c2cc(C(N)=O)ncn2)n1 [I-128] | 100 |
| Cc1nc([C@H](C)NC(=O)c2cc(C(F)(F)F)cc(C(F)(F)F)c2)n(-c2cc(C(=O)N(C)C)ncn2)n1 [I-130] | 100 |
| C[C@H](NC(=O)c1cc(C(F)F)cc(C(F)F)c1)c1ncnn1-c1cc(C(N)=O)ncn1 [I-133] | 100 |
| CNC(=O)c1cc(-n2ncnc2[C@H](C)NC(=O)c2cc(C(F)F)cc(C(F)F)c2)ncn1 [I-134] | 100 |
| C[C@H](NC(=O)c1cc(C(F)F)cc(C(F)F)c1)c1ncnn1-c1cc(C(=O)N(C)C)ncn1 [I-139] | 100 |

What follows are compounds tested on green peach aphid (Myzus persicae) (assay: Myzus persicae spray test (MYZUPE)). Details: 120 h, 100 g/ha, after 5 days.
Format: in vivo
Method: Myzus persicae—Spray Test
• Solvent: 78.0 parts by weight acetone • 1.5 parts by weight dimethylformamide • Emulsifier: alkylarylpoly glycol ether
as §2, with “solvents” for “solvent,”, “and” for “and the concentrate”
Chinese cabbage (Brassica pekinensis) leaf disks infected with all instars of the green peach aphid (Myzus persicae), are sprayed with a preparation of the active ingredient of the desired concentration.
After 5 days mortality in % is determined. 100% means all aphids have been killed and 0% means none of the aphids have been killed.
Myzus persicae—Spray Test (MYZUPE)
(§3) • Solvent: 78.0 parts by weight acetone • 1.5 parts by weight dimethylformamide • Emulsifier: alkylarylpolyglycol ether
After the specified period of time, mortality in % is determined. 100% means all aphids have been killed and 0% means none of the aphids have been killed.

| Structure (SMILES) | mortality at 100 g/ha [%] |
| --- | --- |
| Cc1nc([C@H](C)NC(=O)c2cc(OC(F)(F)F)cc(S(C)(=O)=O)c2)n(-c2cc(C(N)=O)ncn2)n1 [I-32] | 90 |
| CC(C)N(C)C(=O)c1nccc(-n2ncnc2[C@H](C)NC(=O)c2cc(OC(F)(F)F)cc(OC(F)(F)F)c2)n1 [I-115] | 90 |
| CNC(=O)c1nccc(-n2ncnc2[C@H](C)NC(=O)c2cc(OC(F)(F)F)cc(OC(F)(F)F)c2)n1 [I-116] | 100 |
| C[C@H](NC(=O)c1cc(Cl)cc(S(=O)(=O)C(F)F)c1)c1ncnn1-c1cc(C(N)=O)ncn1 [I-118] | 90 |
| C[C@H](NC(=O)c1cc(OC(F)(F)F)cc(C2(C#N)CC2)c1)c1ncnn1-c1cc(C(N)=O)ncn1 [I-120] | 90 |
| C[C@H](NC(=O)c1cc(C#N)cc(OC(F)(F)F)c1)c1ncnn1-c1cc(C(N)=O)ncn1 [I-121] | 90 |
| C[C@H](NC(=O)c1cc(C(F)F)cc(C(F)F)c1)c1ncnn1-c1cc(C(N)=O)ncn1 [I-133] | 100 |
| CNC(=O)c1cc(-n2ncnc2[C@H](C)NC(=O)c2cc(C(F)F)cc(C(F)F)c2)ncn1 [I-134] | 90 |
| C[C@H](NC(=O)c1cc(C(F)F)cc(C(F)F)c1)c1ncnn1-c1cc(C(=O)N(C)C)ncn1 [I-139] | 100 |
| C[C@H](NC(=O)c1cc(OC(F)(F)F)cc(S(C)(=O)=O)c1)c1nc(C2CC2)nn1-c1cc(C(=O)N(C)C)ncn1 [I-154] | 90 |

What follows are compounds tested on larvae of the southern green stink bug (Nezara viridula) (assay: whole plant or invertebrate). Details: 96 h.
Format: in vivo
Method: Nezara viridula—Spray Test
as §1, §2
Barley plants (Hordeum vulgare) are sprayed with a test solution containing the desired concentration of the active ingredient and are infested with larvae of the southern green stink bug (Nezara viridula).
After 4 days mortality in % is determined. 100% means all the stink bugs have been killed; 0% means none of the stink bugs have been killed.

| Structure (SMILES) | mortality at 100 g/ha [%] | mortality at 500 g/ha [%] |
| --- | --- | --- |
| Cc1nc([C@H](C)NC(=O)c2cc(OC(F)(F)F)cc(S(C)(=O)=O)c2)n(-c2cc(C(N)=O)ncn2)n1 [I-32] | 90 | 100 |
| Cc1nc([C@H](C)NC(=O)c2cc(Cl)cc(S(C)(=O)=O)c2)n(-c2cc(C(N)=O)ncn2)n1 [I-61] |  | 100 |
| CNC(=O)c1nccc(-n2ncnc2[C@H](C)NC(=O)c2cc(OC(F)(F)F)cc(OC(F)(F)F)c2)n1 [I-116] | 100 | 100 |
| C[C@H](NC(=O)c1cc(Cl)cc(S(=O)(=O)C(F)F)c1)c1ncnn1-c1cc(C(N)=O)ncn1 [I-118] | 100 | 100 |
| C[C@H](NC(=O)c1cc(OC(F)(F)F)cc(C2(C#N)CC2)c1)c1ncnn1-c1cc(C(N)=O)ncn1 [I-120] | 100 | 100 |
| C[C@H](NC(=O)c1cc(C#N)cc(OC(F)(F)F)c1)c1ncnn1-c1cc(C(N)=O)ncn1 [I-121] | 100 | 100 |
| CNC(=O)c1cc(-n2ncnc2[C@H](C)NC(=O)c2cc(Br)cc(OC(F)(F)C(F)F)c2)ncn1 [I-122] |  | 100 |
| C[C@H](NC(=O)c1cc(C#N)cc(C#N)c1)c1ncnn1-c1cc(C(N)=O)ncn1 [I-126] | 100 | 100 |
| Cc1nc([C@H](C)NC(=O)c2cc(C#N)cc(C#N)c2)n(-c2cc(C(N)=O)ncn2)n1 [I-128] | 100 | 100 |
| Cc1nc([C@H](C)NC(=O)c2cc(C(F)(F)F)cc(C(F)(F)F)c2)n(-c2cc(C(=O)N(C)C)ncn2)n1 [I-130] |  | 100 |
| C[C@H](NC(=O)c1cc(C(F)F)cc(C(F)F)c1)c1ncnn1-c1cc(C(=O)N(C)C)ncn1 [I-139] |  | 100 |
| C[C@H](NC(=O)c1cc(OC(F)(F)F)cc(S(C)(=O)=O)c1)c1nc(C2CC2)nn1-c1cc(C(=O)N(C)C)ncn1 [I-154] |  | 100 |

These compounds were tested on brown planthopper (Nilaparvata lugens) (assay: Nilaparvata lugens spray test). Details: 96 h.
Format: in vivo
Method: Nilaparvata lugens—Spray Test
as §1
as §2, with “solvents” for “solvent,”, “and” for “and the concentrate”
Rice plants (Oryza sativa) are sprayed with a preparation of the active ingredient of the desired concentration and the plants are infested with the brown planthopper (Nilaparvata lugens).
After 4 days mortality in % is determined. 100% means all planthoppers have been killed and 0% means none of the planthoppers have been killed.

| Structure (SMILES) | mortality at 500 g/ha [%] |
| --- | --- |
| Cc1nc([C@H](C)NC(=O)c2cc(OC(F)(F)F)cc(S(C)(=O)=O)c2)n(-c2cc(C(N)=O)ncn2)n1 [I-32] | 90 |
| Cc1nc([C@H](C)NC(=O)c2cc(Cl)cc(S(C)(=O)=O)c2)n(-c2cc(C(N)=O)ncn2)n1 [I-61] | 90 |
| CC(C)N(C)C(=O)c1nccc(-n2ncnc2[C@H](C)NC(=O)c2cc(OC(F)(F)F)cc(OC(F)(F)F)c2)n1 [I-115] | 90 |
| CNC(=O)c1nccc(-n2ncnc2[C@H](C)NC(=O)c2cc(OC(F)(F)F)cc(OC(F)(F)F)c2)n1 [I-116] | 100 |
| C[C@H](NC(=O)c1cc(Cl)cc(S(=O)(=O)C(F)F)c1)c1ncnn1-c1cc(C(N)=O)ncn1 [I-118] | 100 |
| C[C@H](NC(=O)c1cc(OC(F)(F)F)cc(C2(C#N)CC2)c1)c1ncnn1-c1cc(C(N)=O)ncn1 [I-120] | 100 |
| C[C@H](NC(=O)c1cc(C#N)cc(OC(F)(F)F)c1)c1ncnn1-c1cc(C(N)=O)ncn1 [I-121] | 100 |
| CNC(=O)c1cc(-n2ncnc2[C@H](C)NC(=O)c2cc(Br)cc(OC(F)(F)C(F)F)c2)ncn1 [I-122] | 100 |
| C[C@H](NC(=O)c1cc(C#N)cc(C#N)c1)c1ncnn1-c1cc(C(N)=O)ncn1 [I-126] | 100 |
| Cc1nc([C@H](C)NC(=O)c2cc(C#N)cc(C#N)c2)n(-c2cc(C(N)=O)ncn2)n1 [I-128] | 100 |
| Cc1nc([C@H](C)NC(=O)c2cc(C(F)(F)F)cc(C(F)(F)F)c2)n(-c2cc(C(=O)N(C)C)ncn2)n1 [I-130] | 100 |
| C[C@H](NC(=O)c1cc(C(F)F)cc(C(F)F)c1)c1ncnn1-c1cc(C(N)=O)ncn1 [I-133] | 100 |
| CNC(=O)c1cc(-n2ncnc2[C@H](C)NC(=O)c2cc(C(F)F)cc(C(F)F)c2)ncn1 [I-134] | 100 |
| C[C@H](NC(=O)c1cc(C(F)F)cc(C(F)F)c1)c1ncnn1-c1cc(C(=O)N(C)C)ncn1 [I-139] | 100 |
| C[C@H](NC(=O)c1cc(OC(F)(F)F)cc(S(C)(=O)=O)c1)c1nc(C2CC2)nn1-c1cc(C(=O)N(C)C)ncn1 [I-154] | 100 |

These compounds were tested on fall armyworm larvae (Spodoptera frugiperda) (assay: whole plant or invertebrate). Details: 168 h.
Format: in vivo
Method: Spodoptera frugiperda—Spray Test
as §3
as §2, with “solvents” for “solvent,”, “and” for “and the concentrate”
Maize (Zea mays) leaf sections are sprayed with a preparation of the active ingredient of the desired concentration. Once dry, the leaf sections are infested with fall armyworm larvae (Spodoptera frugiperda).
After 7 days mortality in % is determined. 100% means all caterpillars have been killed and 0% means none of the caterpillars have been killed.
Spodoptera frugiperda—Spray Test (SPODFR)
After the specified period of time, mortality in % is determined. 100% means all caterpillars have been killed and 0% means none of the caterpillars have been killed.

| Structure (SMILES) | mortality at 100 g/ha [%] |
| --- | --- |
| Cc1nc([C@H](C)NC(=O)c2cc(OC(F)(F)F)cc(S(C)(=O)=O)c2)n(-c2cc(C(N)=O)ncn2)n1 [I-32] | 100 |
| CC(C)N(C)C(=O)c1nccc(-n2ncnc2[C@H](C)NC(=O)c2cc(OC(F)(F)F)cc(OC(F)(F)F)c2)n1 [I-115] | 100 |
| CNC(=O)c1nccc(-n2ncnc2[C@H](C)NC(=O)c2cc(OC(F)(F)F)cc(OC(F)(F)F)c2)n1 [I-116] | 100 |
| C[C@H](NC(=O)c1cc(Cl)cc(S(=O)(=O)C(F)F)c1)c1ncnn1-c1cc(C(N)=O)ncn1 [I-118] | 100 |
| C[C@H](NC(=O)c1cc(OC(F)(F)F)cc(C2(C#N)CC2)c1)c1ncnn1-c1cc(C(N)=O)ncn1 [I-120] | 100 |
| C[C@H](NC(=O)c1cc(C#N)cc(OC(F)(F)F)c1)c1ncnn1-c1cc(C(N)=O)ncn1 [I-121] | 100 |
| CNC(=O)c1cc(-n2ncnc2[C@H](C)NC(=O)c2cc(Br)cc(OC(F)(F)C(F)F)c2)ncn1 [I-122] | 100 |
| Cc1nc([C@H](C)NC(=O)c2cc(C(F)(F)F)cc(C(F)(F)F)c2)n(-c2cc(C(=O)N(C)C)ncn2)n1 [I-130] | 100 |
| C[C@H](NC(=O)c1cc(C(F)F)cc(C(F)F)c1)c1ncnn1-c1cc(C(N)=O)ncn1 [I-133] | 100 |
| CNC(=O)c1cc(-n2ncnc2[C@H](C)NC(=O)c2cc(C(F)F)cc(C(F)F)c2)ncn1 [I-134] | 100 |
| C[C@H](NC(=O)c1cc(OC(F)(F)F)cc(S(C)(=O)=O)c1)c1nc(C2CC2)nn1-c1cc(C(=O)N(C)C)ncn1 [I-154] | 100 |

From patent US12612386B2, “Heteroaryl-triazole compounds as pesticides” (Bayer Aktiengesellschaft, priority 2020, dated 2026)
